Assay results reported in ChEMBL document CHEMBL3875185, “Structure-anticonvulsant activity studies in the group of (E)-N-cinnamoyl aminoalkanols derivatives monosubstituted in phenyl ring with 4-Cl, 4-CH3 or 2-CH3” (Bioorg Med Chem, 2017).

Experiments:
[1] = system: Rattus norvegicus; assay: Anticonvulsant activity in ip dosed pentylenetetrazole induced seizure Sprague-Dawley rat model assessed as no observable episode of clonic convulsion of at least 5 secs by measuring time to peak effect; type: functional
[2] = system: Rattus norvegicus; assay: Anticonvulsant activity in ip dosed maximal electroshock induced seizure Sprague-Dawley rat model assessed as suppression in hindlimb tonic extension by measuring time to peak effect; type: functional
[3] = system: Mus musculus; assay: Neurotoxicity in mouse assessed as induction of motor impairment at 30 mg/kg, ip measured at 0.5 hrs post dose by rotarod method; type: toxicity, organism-based; details: in vivo
[4] = target: Beta-2 adrenergic receptor (Homo sapiens) (UniProt P07550); assay: Displacement of [3H]CGP 12177 from human recombinant beta2 adrenergic receptor expressed in CHO cells at 100 uM measured after 120 mins by scintillation counting method relative to control; type: cell-based
[5] = system: Mus musculus; assay: Anticonvulsant activity in ip dosed 6-Hz induced seizure mouse model assessed as restoration of normal activity within 10 secs from stimulation at 44 mA; type: functional
[6] = Neurotoxicity in po dosed Sprague-Dawley rat assessed as behavioral change; type: toxicity, organism-based; details: in vivo
[7] = species: Rattus norvegicus; assay: Displacement of [125I]apamin from rat cerebral cortex SKCa channel at 100 uM measured after 60 mins by scintillation counting method relative to control
[8] = target: 5-hydroxytryptamine receptor 5A (Homo sapiens) (UniProt P47898); assay: Displacement of [3H]LSD from human recombinant 5HT5A receptor expressed in HEK293 cells at 100 uM measured after 120 mins by scintillation counting method relative to control; type: cell-based
[9] = target: T1, 5-hydroxytryptamine receptor 1A (Homo sapiens) (UniProt P08908); assay: Displacement of [3H]8-OH-DPAT from human recombinant 5HT1A receptor expressed in HEK293 cells at 100 uM measured after 60 mins by scintillation counting method relative to control; type: cell-based
T1 sequence (whole entry): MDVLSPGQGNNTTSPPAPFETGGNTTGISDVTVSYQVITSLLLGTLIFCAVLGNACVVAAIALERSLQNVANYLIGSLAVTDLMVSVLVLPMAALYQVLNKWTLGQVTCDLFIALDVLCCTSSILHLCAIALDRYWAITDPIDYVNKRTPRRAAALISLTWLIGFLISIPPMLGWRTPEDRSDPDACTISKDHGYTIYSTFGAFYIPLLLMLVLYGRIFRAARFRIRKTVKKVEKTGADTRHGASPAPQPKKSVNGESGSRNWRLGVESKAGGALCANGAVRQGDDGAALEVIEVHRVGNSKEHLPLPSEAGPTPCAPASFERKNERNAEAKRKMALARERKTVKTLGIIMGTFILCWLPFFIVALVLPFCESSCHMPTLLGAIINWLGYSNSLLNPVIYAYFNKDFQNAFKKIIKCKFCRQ

[10] = target: Melanocortin receptor 4 (Homo sapiens) (UniProt P32245); assay: Displacement of [125I]NDP-a-MSH from human recombinant MC4 receptor expressed in CHO cells at 100 uM measured after 120 mins by scintillation counting method relative to control; type: cell-based
[11] = species: Rattus norvegicus; assay: Displacement of [3H]batrachotoxinin from rat cerebral cortex sodium channel site 2 at 100 uM measured after 60 mins by scintillation counting method relative to control
[12] = Neurotoxicity in ip dosed Sprague-Dawley rat assessed as behavioral change; type: toxicity, organism-based; details: in vivo
[13] = target: T2, Neuromedin-K receptor (Homo sapiens) (UniProt P29371); assay: Displacement of [3H]SR 142801 from human recombinant NK3 receptor expressed in CHO cells at 100 uM measured after 120 mins by scintillation counting method relative to control; type: cell-based
T2 sequence (whole entry): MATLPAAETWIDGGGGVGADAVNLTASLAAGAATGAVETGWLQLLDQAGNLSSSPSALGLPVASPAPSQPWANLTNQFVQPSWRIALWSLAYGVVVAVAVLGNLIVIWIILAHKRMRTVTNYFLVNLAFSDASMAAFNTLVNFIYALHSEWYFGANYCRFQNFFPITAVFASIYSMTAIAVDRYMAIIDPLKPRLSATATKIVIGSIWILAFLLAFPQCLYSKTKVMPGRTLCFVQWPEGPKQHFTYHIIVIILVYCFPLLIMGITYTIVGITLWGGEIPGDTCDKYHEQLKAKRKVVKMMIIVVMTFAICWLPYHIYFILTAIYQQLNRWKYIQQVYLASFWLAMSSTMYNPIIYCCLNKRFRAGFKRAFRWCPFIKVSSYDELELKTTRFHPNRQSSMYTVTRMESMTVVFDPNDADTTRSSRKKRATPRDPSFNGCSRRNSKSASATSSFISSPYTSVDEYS

[14] = target: Beta-1 adrenergic receptor (Homo sapiens) (UniProt P08588); assay: Displacement of [3H]CGP 12177 from human recombinant beta1 adrenergic receptor expressed in HEK293 cells at 100 uM measured after 60 mins by scintillation counting method relative to control; type: cell-based
[15] = target: Adrenergic receptor alpha-1 (Rattus norvegicus) (UniProt P15823+P23944+P43140); assay: Displacement of [3H]prazosin from rat cerebral cortex alpha-1 adrenergic receptor at 100 uM measured after 60 mins by scintillation counting method relative to control
[16] = target: T3, Adenosine receptor A1 (Homo sapiens) (UniProt P30542); assay: Displacement of [3H]DPCPX from human recombinant adenosine receptor A1 expressed in CHO cells at 100 uM measured after 60 mins by scintillation counting method relative to control; type: cell-based
T3 sequence (whole entry): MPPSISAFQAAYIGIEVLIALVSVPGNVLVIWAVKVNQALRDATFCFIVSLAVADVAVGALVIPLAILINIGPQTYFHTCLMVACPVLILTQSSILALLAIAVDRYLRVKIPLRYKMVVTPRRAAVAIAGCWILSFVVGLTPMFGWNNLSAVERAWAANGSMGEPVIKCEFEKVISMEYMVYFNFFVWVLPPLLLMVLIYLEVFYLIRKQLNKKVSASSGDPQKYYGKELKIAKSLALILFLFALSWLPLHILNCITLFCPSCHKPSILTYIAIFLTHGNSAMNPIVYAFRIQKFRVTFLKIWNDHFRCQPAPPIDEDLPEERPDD

[17] = system: Mus musculus; assay: Anticonvulsant activity in ip dosed 6-Hz induced seizure mouse model assessed as restoration of normal activity within 10 secs from stimulation at 32 mA; type: functional
[18] = target: Mu-type opioid receptor (Homo sapiens) (UniProt P35372); assay: Displacement of [3H]DAMGO from human recombinant mu-opioid receptor expressed in HEK293 cells at 100 uM measured after 120 mins by scintillation counting method relative to control; type: cell-based
[19] = system: Jurkat; assay: Displacement of [3H]DTG from sigma receptor in human Jurkat cells at 100 uM measured after 120 mins by scintillation counting method relative to control; type: cell-based

Beta-2 adrenergic receptor (Homo sapiens), sequence (P07550 whole entry, looked up): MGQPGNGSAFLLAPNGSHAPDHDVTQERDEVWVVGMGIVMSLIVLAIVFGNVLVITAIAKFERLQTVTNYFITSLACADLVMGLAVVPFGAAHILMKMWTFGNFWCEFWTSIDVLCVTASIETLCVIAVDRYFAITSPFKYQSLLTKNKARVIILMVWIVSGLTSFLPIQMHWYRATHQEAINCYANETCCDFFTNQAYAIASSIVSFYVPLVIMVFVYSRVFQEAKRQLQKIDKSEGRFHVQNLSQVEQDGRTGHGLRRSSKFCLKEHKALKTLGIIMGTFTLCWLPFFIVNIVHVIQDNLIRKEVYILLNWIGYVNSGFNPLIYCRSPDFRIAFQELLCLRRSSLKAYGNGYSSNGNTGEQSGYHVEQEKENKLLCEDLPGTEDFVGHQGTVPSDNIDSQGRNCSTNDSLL
Mu-type opioid receptor (Homo sapiens), sequence (P35372 whole entry): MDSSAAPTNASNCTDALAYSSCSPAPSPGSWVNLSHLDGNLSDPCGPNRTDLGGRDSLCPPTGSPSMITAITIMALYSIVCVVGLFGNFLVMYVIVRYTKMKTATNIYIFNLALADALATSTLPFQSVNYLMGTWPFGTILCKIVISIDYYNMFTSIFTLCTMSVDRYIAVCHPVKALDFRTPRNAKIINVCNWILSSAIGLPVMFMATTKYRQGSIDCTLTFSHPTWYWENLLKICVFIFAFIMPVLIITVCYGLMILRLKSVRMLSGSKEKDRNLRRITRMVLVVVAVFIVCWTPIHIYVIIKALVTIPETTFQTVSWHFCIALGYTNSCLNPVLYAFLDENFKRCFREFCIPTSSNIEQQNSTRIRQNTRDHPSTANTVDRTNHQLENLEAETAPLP
5-hydroxytryptamine receptor 5A (Homo sapiens), sequence (P47898 whole entry): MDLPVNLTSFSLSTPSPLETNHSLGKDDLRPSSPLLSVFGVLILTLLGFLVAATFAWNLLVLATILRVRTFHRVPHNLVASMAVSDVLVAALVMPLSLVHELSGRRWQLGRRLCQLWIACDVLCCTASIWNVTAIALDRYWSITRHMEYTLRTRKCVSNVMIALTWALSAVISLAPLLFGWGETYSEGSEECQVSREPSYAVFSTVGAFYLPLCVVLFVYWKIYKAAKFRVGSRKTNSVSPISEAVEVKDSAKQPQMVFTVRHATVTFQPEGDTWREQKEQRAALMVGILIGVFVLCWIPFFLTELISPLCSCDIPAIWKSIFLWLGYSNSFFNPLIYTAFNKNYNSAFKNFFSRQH
Melanocortin receptor 4 (Homo sapiens), sequence (P32245 whole entry): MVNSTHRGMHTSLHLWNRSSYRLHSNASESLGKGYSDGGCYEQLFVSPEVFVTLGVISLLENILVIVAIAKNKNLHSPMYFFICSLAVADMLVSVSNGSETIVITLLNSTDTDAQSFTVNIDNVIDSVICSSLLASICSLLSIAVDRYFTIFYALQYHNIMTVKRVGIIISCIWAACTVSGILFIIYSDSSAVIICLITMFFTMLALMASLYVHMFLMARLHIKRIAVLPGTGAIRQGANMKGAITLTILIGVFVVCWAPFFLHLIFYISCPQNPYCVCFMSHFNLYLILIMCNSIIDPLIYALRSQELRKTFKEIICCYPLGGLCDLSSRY
Beta-1 adrenergic receptor (Homo sapiens), sequence (P08588 whole entry, looked up): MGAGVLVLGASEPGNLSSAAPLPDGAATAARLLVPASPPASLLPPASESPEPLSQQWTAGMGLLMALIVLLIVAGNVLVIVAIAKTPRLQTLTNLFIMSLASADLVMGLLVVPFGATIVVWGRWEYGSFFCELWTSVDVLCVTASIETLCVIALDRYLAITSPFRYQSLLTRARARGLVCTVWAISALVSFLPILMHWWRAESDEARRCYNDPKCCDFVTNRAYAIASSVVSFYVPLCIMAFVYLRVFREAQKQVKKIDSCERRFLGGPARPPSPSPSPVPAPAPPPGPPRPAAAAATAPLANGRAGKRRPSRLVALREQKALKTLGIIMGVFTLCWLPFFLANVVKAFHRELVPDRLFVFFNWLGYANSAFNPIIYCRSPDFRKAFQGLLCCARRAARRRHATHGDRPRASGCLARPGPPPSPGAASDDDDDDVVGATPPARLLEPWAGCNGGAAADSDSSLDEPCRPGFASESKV

Row | Compound | Time [1] [h] | Time [2] [h] | Activity [3] | inhibition [4] [%] | ED50 [5] [mg/kg] | TD50 [6] [mg/kg] | inhibition [7] [%] | inhibition [8] [%] | inhibition [9] [%] | inhibition [10] [%] | inhibition [11] [%] | TD50 [12] [mg/kg] | inhibition [13] [%] | inhibition [14] [%] | inhibition [15] [%] | inhibition [16] [%] | ED50 [17] [mg/kg] | inhibition [18] [%] | inhibition [19] [%]
1 | Cc1ccccc1/C=C/C(=O)N[C@@H](C)CO | 0.25 | 0.25 | Non-Toxic | -8 | 42.3 | > 500 | -5.8 | 17.4 | 51.2 | 7.9 | -2.3 | 103 | -0.4 | -2.8 | 11.5 | 1.3 | 52.6 | 0.4 | -3.5
2 | CC(O)CNC(=O)/C=C/c1ccc(Cl)cc1 (configuration not stated) | 0.5 | 0.5 | Non-Toxic | -9 | 51.3 | > 500 | -2.5 | 19 | 76.6 | 0.9 | 10.2 | 69.8 | 5.2 | 0.7 | 17.3 | 10 | 42.3 | 11.3 | 22.9
3 | CCC(CO)NC(=O)/C=C/c1ccc(Cl)cc1 (configuration not stated) | 0.5 | 0.5 | Non-Toxic | 2.1 | 92.9 | 277 | 2.3 | 18.7 | 28.2 | -3.1 | 28.4 | 79.5 | 5.8 | -2.9 | 9.9 | -0.4 | 57.6 | 23.3 | 25.4
